The values below come from US20170065533A1 (YISSUM RESEARCH DEVELOPMENT COMPANY OF THE HEBREW …, priority 2011, published 2017).

The nature of data set [1]: Particle size, PDI and zeta potential of nanocarriers. Format: physicochemical. As to conditions: INPs conjugated to MAbs.
Protocol: mean diameter and particle size distribution measurements were carried out utilizing an ALV Noninvasive Back Scattering High Performance Particle Sizer (ALV-NIBS HPPS, Langen, Germany) at 25° C. and using water as diluent.
the zeta potential of the NPs was measured using the Malvern zetasizer (Malvern, UK) diluted in HPLC grade water.
The size and zeta potential of the various NPs were measured in water using a DTS zetasizer (Malvern, UK).
The mean diameter and the zeta potential of NCs were characterized using Malvern's Zetasizer (Nano series, Nanos-ZS, UK) at 25° C. and using water as diluent.
Mean diameter and zeta potential of the NCs were characterized using Malvern's Zetasizer (Nano ZSP) at 25° C. For the sample preparation, 200 mg of the anhydrous semi-solid preparation were dissolved in 2 mL HPLC water. The sample was vortexed and further centrifuged (4000 rpm, 10 min). Then, 1.2 mL of the supernatant was collected and centrifuged again (14000 rpm, 10 min). Finally, 1 mL of the obtained supernatant was collected and evaluated.
Data set [2] can be described thus: Conjugation efficiency of MAbs to NPs (BCA assay). Format: physicochemical. The settings on record: INPs conjugated to MAbs. As to the method:
The conjugation efficiency of the macromolecules such as MAbs was determined using the […] Bicinchoninic acid assay (BCA) for protein quantification (Pierce, Ill., USA).

For data set [3] the following is noted: cited from earlier work.
For data set [4] the following is noted: 50 mg/day over one year, cited from earlier work.
The conditions of data set [5]: cited from earlier work. The source holds these as a separate data set.

For “rituximab immunonanoparticles: thiolated PEG-PLGA50,000/PLGA48,000 nanoparticles surface-conjugated to rituximab MAb”, the Size in data set [1] turned out to be 73.75 nm. Besides, the Conjugation in data set [2] is listed as 86.7%.
With `C[C@]12CC[C@H](O)CC1=CC[C@@H]1[C@@H]2CC[C@]2(C)C(=O)CC[C@@H]12` [DHEA, dehydroepiandrosterone], the “maximum solubility in mid chain triglycerides” value in data set [3] was 1.77%. For the same compound, in data set [4] (aged 60 years and over), the “skin status (hydration, epidermal thickness, sebum production, pigmentation)” value is listed as “improvement of the skin status”. In data set [4], the harmful consequences entry is “no harmful consequences”. Also, in data set [5] (DHEA (5%) in ethanol:olive oil (1:2), 12 times over 4 weeks, aged and young skin), the “expression of procollagen alpha1 (I) mRNA and protein” value is listed as “significantly increase”. Further, the “basal expression of MMP-1 mRNA and protein” value in data set [5] (DHEA (5%) topical, 12 times over 4 weeks) was “significantly decreased”. For the same compound, the “expression of TIMP-1 protein” value in data set [5] (DHEA (5%) topical, aged skin) is listed as “increased”.
